US20220184058A1, “PHARMACEUTICAL COMPOSITION FOR TREATING AORTIC ANEURYSM” (National University Corporation Hamamatsu University School …, priority 2019, published 2022)

System: aortic wall hypoxia-induced rat AAA model
Assay: Aortic wall hypoxia-induced rat AAA model: non-rupture survival / mortality due to rupture
Format: in vivo
Details: day of operation to Day 28 post operation, versus control group; trend toward improvement in survival rate
Excerpt: The action of Compound 1 and pitavastatin in rat AAA models (Non-Patent Document 3) induced by operation were examined. In the operation, the aortic wall of each model was separated from the surrounding tissues. After a catheter was inserted, the abdominal aorta was ligated together with a catheter with a thread was studied.
In the test, Compound 1 was manufactured according to the method disclosed in Patent Document 1 and mixed, in a proportion of 0.15%, with a normal diet (FR2, manufactured by Funabashi Farm Co., Ltd.), and the Compound 1-mixed diet was used. In regard to pitavastatin, 0.003% of pitavastatin calcium was mixed with a normal diet(FR2, manufactured by Funabashi Farm Co., Ltd.) and the pitavastatin-mixed diet was used.
Sprague-Dawley male rats (300 to 350 g: Japan SLC, Inc.) were used in the experiment. The rats were reared at room temperature of 25° C.±1° C., and allowed to freely take the feed and water.
The model was created according to the method disclosed in Non-Patent Document 3. Specifically, a rat AAA model was created by separating the rat aortic wall from the surrounding tissue, inserting a polyurethane catheter, and then ligating the abdominal aorta together with a plastic catheter with a monofilament thread, and inducing AAA. […]
In each group, up to 28 days post operation, the aneurysm diameter was measured by echo and comparison in survival was made. […]

Compound: O=C(NCCCOc1ccc2[nH]c(=O)ccc2c1)N(C1CC1)[C@@H]1CCCC[C@H]1O [Compound 1, (−)-6-[3-[3-cyclopropyl-3-[(1R,2R)-2-hydroxycyclohexyl]ureido]propoxy]-2(1H)-quinolinone]
- mortality rates due to rupture: lower than that in the control group
